The subject of the series is α-glucosidase (EC 3.2.1.20) derived from pig liver.

As to α-Glucosyl naringin, the “hydrolysis by α-glucosidase” value was “hydrolyzed α-glucosyl naringin into naringin and D-glucose”.

For the origin of these results see patent EP0455432A1, “Alpha-glycosyl naringin, and its preparation and uses” (KABUSHIKI KAISHA HAYASHIBARA SEIBUTSU KAGAKU KENKYUJO, priority 1990, dated 1991).
